From ChEMBL document CHEMBL5357055, “Protoilludane-Type and Related Nor-Sesquiterpenes from Phellinus hartigii and Their Anti-Hypertrophic Activities in Rat Cardiomyocytes” (J Nat Prod, 2024) come the findings set out here.

Each structure is given as a SMILES string. Active and inactive are the calls of the source. No cut-off for these calls is given here.

For series [1], the system named is NRCM. Put plainly: Anticardiac hypertrophic activity in phenylephrine-induced hypertrophy in Sprague-Dawley rat NRCM cells assessed as reduction in NPPA mRNA expression level at 50 uM preincubated for 12 hrs followed by phenylephrine stimulation and measured after 48 hrs by qRT-PCR analysis. It counts as functional, cell-based. The conditions noted are these: time 60.0 hrs.

The test system of series [2] is NRCM. Put plainly: Anticardiac hypertrophic activity in phenylephrine-induced hypertrophy in Sprague-Dawley rat NRCM cells assessed as reduction in inhibition of MYH7 level at 50 uM preincubated for 12 hrs followed by phenylephrine stimulation and measured after 48 hrs by Westernblot analysis. It counts as functional, cell-based. The note with it: time 60.0 hrs.
Series [3] in a line: Cytotoxicity against NRCM cells assessed as reduction in cell viability measured after 48 hrs by CCK-8 method. The class given is toxicity, cell-based. The note with it: rat. (In general: Tetrazolium assays rely on reduction of a dye to a coloured formazan, in cell work by metabolically active cells.)
For series [4], the system named is NRCM. Put plainly: Anticardiac hypertrophic activity in phenylephrine-induced hypertrophy in Sprague-Dawley rat NRCM cells assessed as reduction in NPPB mRNA expression level at 50 uM preincubated for 12 hrs followed by phenylephrine stimulation and measured after 48 hrs by qRT-PCR analysis. The class given is functional, cell-based. The note with it: time 60.0 hrs.

Series [5] concerns NRCM. As to the kind of experiment: Anticardiac hypertrophic activity in phenylephrine-induced hypertrophy in Sprague-Dawley rat NRCM cells assessed as reduction in inhibition of ANP level at 50 uM preincubated for 12 hrs followed by phenylephrine stimulation and measured after 48 hrs by Westernblot analysis. It counts as functional, cell-based. The conditions noted are these: time 60.0 hrs.

The test system of series [6] is NRCM. Put plainly: Anticardiac hypertrophic activity in phenylephrine-induced hypertrophy in Sprague-Dawley rat NRCM cells assessed as attenuation of cardiomyocyte hypertrophy preincubated for 12 hrs followed by phenylephrine stimulation and measured after 48 hrs by 488-I Phalloidin/DAPI staining based fluorescence microscopic analysis. The conditions noted are these: time 60.0 hrs. It counts as functional, cell-based.

As to `C[C@@]12CC[C@@](C)(C1=O)[C@H]1C[C@H](C(=O)O)C[C@H]1C2`, the result in the series with NRCM [1], in the series on NRCM [2], with NRCM [4], in the series with NRCM [5] and in the series on NRCM [6] was Active. For the same compound, the cytotoxic concentration (CC50) at 48 h in series [3] was above 50 µM.
Turning to `COC(=O)[C@@H]1C[C@@H]2C[C@@H](C)[C@@H]3C(=O)C[C@]3(C)[C@H]2C1`, the outcome in the series on NRCM [1], with NRCM [2], in the series with NRCM [4], in the series with NRCM [5] and in the series with NRCM [6] was Active. Besides, the 50% cytotoxic concentration (CC50) at 48 h in series [3] was above 50 µM.
Regarding `COC(=O)[C@@H]1C[C@@H]2C[C@@H](C)[C@@H]3OC(=O)C[C@]3(C)[C@H]2C1`, the outcome with NRCM [1], in the series on NRCM [2], in the series with NRCM [4], in the series on NRCM [5] and in the series with NRCM [6] was Active. For the same compound, the half-maximal cytotoxic concentration (CC50) at 48 h in series [3] is above 50 µM.

The term CC50 denotes the concentration that lowers cell viability or growth by half.
